PMC7482845, “G10 is a direct activator of human STING” (PLoS ONE, 2020)
Like-named read-outs stand apart in the source and are kept apart here.

What was measured:
[1] = target: T1, R232 variant of human STING (Homo sapiens, UniProt Q86WV6, H232R); assay: Luciferase (ISRE.ISG reporter) assay in HEK293T cells stably expressing R232 hSTING; type: cell-based
T1 construct: the ER fraction from R232.STING transfected HEK293T cells which contained full length STING
Text: (§1) • a) Stable STING expressing cells. Stable HEK293T STING-expressing cell lines were generated using plasmids purchased from Invivogen, CA, USA, that contain STING cDNA cloned into the pUNO-1 vector under the hEF1-HTLV promoter as well as the Blasticidin selection cassette. The human STING plasmids corresponding to the R232, H232 and HAQ variants were directly procured from Invivogen while the AQ and Q variants were created by mismatch PCR using cDNA from HAQ.STING and R232.STING variants respectively. These vectors were individually transfected into HEK293T cells using Lipofectamine (Invitrogen) and transfected cells were expanded under Blasticidin selection. These cells were further subjected to clonal selection using the limiting dilution method to obtain clonally pure populations of HEK293T cells expressing each of the five human STING variants. Clones with minimal ligand independent activation of STING were chosen for cellular experiments. • b) N-His R232.hSTING HEK293T cells. HEK293T cells stably expressing N-His R232.hSTING were generated by the following described method. N-His R232.hSTING.pcDNA Myc B plasmid was transfected into HEK293T cells using Lipofectamine reagent (Invitrogen) and the transfected cells were selected under Hygromycin. Stably STING expressing HEK293T cells thus selected were further subjected to single cell clonal selection using the limiting dilution method to obtain a clonally pure population of HEK293T cells expressing the human R232 STING variant.
[…] clonally selected HEK293T-hSTING-Luciferase cells or control HEK293T-Luciferase cells were seeded in 384-well plates in growth medium and stimulated with known STING agonists or novel compounds. […]

Q variant of human STING = target: T2, Q variant of human STING (Homo sapiens, UniProt Q86WV6, R293Q); assay: Luciferase (ISRE.ISG reporter) assay in HEK293T cells stably expressing Q hSTING; type: cell-based
T2 construct: expressed in transfected cells
Text: as §1, with “HEK293T cells stably expressing N-His R232.hSTING were generated by the following described method. N-His R232.hSTING.pcDNA Myc B plasmid was transfected into HEK293T cells using Lipofectamine reagent (Invitrogen) and the transfected cells were selected under Hygromycin. Stably STING expressing HEK293T cells thus selected were further subjected to single cell clonal selection using the limiting dilution method to obtain a clonally pure population of HEK293T cells expressing the human R232 STING variant.” left out
(§2) […] clonally selected HEK293T-hSTING-Luciferase cells or control HEK293T-Luciferase cells were seeded in 384-well plates in growth medium and stimulated with known STING agonists or novel compounds. Supernatants were removed after 20 hours of treatment and secretory reporter gene activity was measured using the Quanti-Luc detection system (Invivogen) on a Spectramax i3X luminometer.

[2] = target: T3, AQ variant of human STING (Homo sapiens, UniProt Q86WV6, G230A/R293Q); assay: Luciferase (ISRE.ISG reporter) assay in HEK293T cells stably expressing AQ hSTING; type: cell-based
T3 construct: expressed in transfected cells
Text: as §1, with “HEK293T cells stably expressing N-His R232.hSTING were generated by the following described method. N-His R232.hSTING.pcDNA Myc B plasmid was transfected into HEK293T cells using Lipofectamine reagent (Invitrogen) and the transfected cells were selected under Hygromycin. Stably STING expressing HEK293T cells thus selected were further subjected to single cell clonal selection using the limiting dilution method to obtain a clonally pure population of HEK293T cells expressing the human R232 STING variant.” left out
as §2

HAQ STING (THP-1 cells) = target: T4, HAQ STING (THP-1 cells) (Homo sapiens, UniProt Q86WV6, G230A/R293Q/R71H); assay: THP1 cellular assay (EC50); type: cell-based; settings: THP-1 cells (HAQ STING)
T4 construct: THP1 cells constitutively express the HAQ variant of human STING; host or cells: THP-1

[3] = target: T5, recombinant CTT domain of R232 STING (Homo sapiens, UniProt Q86WV6, H232R); assay: In vitro kinase assay, recombinant CTT domain of R232 STING plus recombinant TBK1; type: biochemical; settings: cell free, immunoblot
T5 construct: corresponding to the soluble domain of STING (138 to 379 aa) protein; purchased Cayman Chemicals (STING); Invitrogen (TBK1) 22816 (STING); A31514 (TBK1)
Experimental: 50ng of recombinant STING protein (Cayman Chemicals Cat# 22816) corresponding to the soluble domain of STING (138 to 379 aa) protein or 1 μl of ER fraction (8mg/ml) containing full length STING from R232.hSTING was incubated with 20 ng of recombinant full length TBK1 protein (Invitrogen, Cat# A31514) in the presence/absence of test compound in 20 μl reaction buffer (50mM Tris-HCl of pH 7.4, 100mM NaCl, 5mM MgCl2, 5mM MnCl2, 10% glycerol, 0.2mM Na3VO4, 20mM β-glycero-PO4, 0.5mM ATP) and 0.01% BSA at 30 °C for 45 min. The reaction was quenched by addition of 2 μl of 10X EDTA to a final concentration of […]. Samples were treated with 4x gel loading dye followed by electrophoresis in 10% SDS-PAGE gels and transferred to Immobilon-P membranes (Millipore). […] Anti-rabbit HRP labelled secondary antibody (Abcam) and Clarity Max™ western ECL substrate (Biorad, Cat# 1705062) were used for visualization of bands using a BioRad XRS plus imager.

[4] = target: T6, mSTING (wild type CT26 cells) (Mus musculus, UniProt Q3TBT3); assay: Western blot of pSTING and pIRF3 in parent CT26 cells; type: cell-based; settings: immunoblot (S10 Fig)
T6 construct: endogenous in cells; host or cells: CT26 (parent line, and the endogenous protein in R232.hSTING.CT26)
Experimental: (§3) 5 x 10^5 cells were seeded in 24-well plates in 500 μl growth medium and stimulated with novel compounds at 10μM. After 2 hours of treatment cells were harvested by centrifugation and cell pellets were lysed in RIPA buffer (20mM Tris-Cl, 150mM NaCl, 0.5mM EDTA, 1% NP40, 0.05% SDS) containing 1x phosphatase inhibitor cocktail 3 (Sigma) and 1x protease inhibitor (Roche) to extract the soluble fraction of protein. 10 μg of extracted protein was electrophoresed in 10% SDS-PAGE gels and transferred onto Immobilon-P membranes (Millipore). […] Anti-rabbit HRP label secondary antibody (Abcam) and Clarity Max™ western ECL substrate (Biorad—cat# 1705062) were used for visualization of bands using a BioRad XRS plus imager.

[5] = target: T7, mSTING (CT26 cells overexpressing mSTING) (Mus musculus, UniProt Q3TBT3); assay: Western blot of pSTING and pIRF3 in CT26 cells overexpressing mSTING; type: cell-based; settings: immunoblot, 2 hours
T7 construct: expressed in transfected cells; host or cells: CT26
Experimental: as §3

R232.hSTING (CT26 cells) = target: T8, R232.hSTING (CT26 cells) (Homo sapiens, UniProt Q86WV6, H232R); assay: Western blot of Hu-pSTING and pIRF3 in R232.hSTING.CT26 cells; type: cell-based; settings: immunoblot, 2 hours
T8 construct: expressed in transfected cells; host or cells: CT26 (murine)
Experimental: 5 x 10^5 cells were seeded in 24-well plates in 500 μl growth medium and stimulated with novel compounds at 10μM. After 2 hours of treatment cells were harvested by centrifugation and cell pellets were lysed in RIPA buffer (20mM Tris-Cl, 150mM NaCl, 0.5mM EDTA, 1% NP40, 0.05% SDS) containing 1x phosphatase inhibitor cocktail 3 (Sigma) and 1x protease inhibitor (Roche) to extract the soluble fraction of protein. 10 μg of extracted protein was electrophoresed in 10% SDS-PAGE gels and transferred onto Immobilon-P membranes (Millipore).

[6] = tested on: immortalized human fibroblasts; parameters: method as in PMID 26646986; settings: cited from earlier work
[7] = tested on: human PBMCs and umbilical endothelial cells; parameters: method as in PMID 26646986; settings: cited from earlier work

T1 sequence (Q86WV6 whole entry H232R): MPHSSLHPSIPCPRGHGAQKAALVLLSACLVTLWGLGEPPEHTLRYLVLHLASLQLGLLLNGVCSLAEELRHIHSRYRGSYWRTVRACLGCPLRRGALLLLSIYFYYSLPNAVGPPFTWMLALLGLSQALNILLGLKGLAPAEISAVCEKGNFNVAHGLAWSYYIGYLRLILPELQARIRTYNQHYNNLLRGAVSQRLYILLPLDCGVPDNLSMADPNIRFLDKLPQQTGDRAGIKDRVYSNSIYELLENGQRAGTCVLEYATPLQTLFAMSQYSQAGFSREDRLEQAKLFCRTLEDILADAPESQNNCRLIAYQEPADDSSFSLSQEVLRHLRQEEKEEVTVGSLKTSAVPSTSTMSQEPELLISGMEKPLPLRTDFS
T3 sequence (Q86WV6 whole entry G230A/R293Q): as the sequence (Q86WV6 whole entry H232R) above, with G230A, R232H, R293Q counted along it
T4 sequence (Q86WV6 whole entry R71H/G230A/R293Q): as the sequence (Q86WV6 whole entry H232R) above, with R71H, G230A, R232H, R293Q counted along it
T5 sequence (Q86WV6 138-379 H232R): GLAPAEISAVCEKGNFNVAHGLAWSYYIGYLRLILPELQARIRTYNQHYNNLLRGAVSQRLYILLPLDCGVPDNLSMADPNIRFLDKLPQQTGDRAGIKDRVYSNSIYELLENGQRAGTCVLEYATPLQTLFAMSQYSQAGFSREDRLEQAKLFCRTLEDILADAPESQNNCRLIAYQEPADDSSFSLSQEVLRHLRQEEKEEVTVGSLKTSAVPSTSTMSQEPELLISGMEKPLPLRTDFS
T7 sequence (Q3TBT3 whole entry): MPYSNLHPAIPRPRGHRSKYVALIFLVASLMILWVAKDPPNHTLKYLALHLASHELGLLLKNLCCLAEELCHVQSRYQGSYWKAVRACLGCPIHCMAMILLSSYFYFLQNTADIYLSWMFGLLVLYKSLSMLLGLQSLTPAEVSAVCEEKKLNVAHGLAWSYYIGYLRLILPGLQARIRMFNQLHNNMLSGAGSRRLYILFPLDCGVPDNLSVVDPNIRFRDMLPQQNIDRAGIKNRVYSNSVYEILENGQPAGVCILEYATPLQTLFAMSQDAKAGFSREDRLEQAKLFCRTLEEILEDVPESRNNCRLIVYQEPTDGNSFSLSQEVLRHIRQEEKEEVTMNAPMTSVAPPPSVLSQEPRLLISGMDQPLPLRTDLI
T6 sequence (Q3TBT3 whole entry): as above
T2 sequence (Q86WV6 whole entry R293Q): as the sequence (Q86WV6 whole entry H232R) above, with R232H, R293Q counted along it
T8 sequence (Q86WV6 whole entry H232R): as the sequence (Q86WV6 whole entry H232R) above

In the case of `O=C(NCc1ccco1)c1ccc2c(c1)N(Cc1c(F)cccc1Cl)C(=O)CS2` [Compound G10, 4-(2-Chloro-6-fluorobenzyl)-N-(furan-2-ylmethyl)-3-oxo-3,4-dihydro-2H-benzo[b][1,4]thiazine-6-carboxamide], the EC50 ([1]; HEK293T cells expressing R232 hSTING, luciferase reporter, read-out: HEK.R232 EC50) is reported as 2.49 µM, the EC50 ([1]; ISRE.ISG54 luciferase reporter, HEK293T, 18 hours, read-out: estimated EC50, R232 variant) is reported as 2.5 µM and the “activity against the Q variant” value (Q variant of human STING) is reported as “barely active”. For the same compound, the “activity against the AQ variant” value [2] was “barely active”, the “THP-1 EC50” value (HAQ STING (THP-1 cells)) was “Nil @ 30uM” and the “formation of pSTING by TBK1, recombinant CTT domain of R232 STING” value [3] was “activated”. For the same compound, the “phosphorylation of mSTING or mIRF3, parent CT26 line” value [4] was “did not lead to phosphorylation”, the “phosphorylation of mSTING or mIRF3, CT26 cells overexpressing mSTING” value [5] was “did not lead to phosphorylation” and the “phosphorylated hSTING (and mIRF3) in CT26 cells overexpressing R232.hSTING” value (R232.hSTING (CT26 cells)) was “significant amounts”. The “activity in STING knockout fibroblasts” value ([6]; STING knockout fibroblasts) was “inactive”, the “activation of the NFκB pathway in immortalized human fibroblasts” value [6] was “did not activate” and the “induction of pro-inflammatory genes incl. NFκB pathway” value [7] was “induced several pro-inflammatory genes”.
